Assay results published in patent publication US12077503B2, “Substituted cyclic amides and their use as herbicides” (FMC CORPORATION, priority 2015, dated 2024).

Columns and labels:
Assay type in all cases: in vivo
[1] = system: ragweed (common ragweed, Ambrosia elatior); experiment: Test A preemergence; conditions: Ambrosia artemisiifolia, pre-emergence, 240 h, 0 to 100 scale (0 no effect, 100 complete control), read-out: Plant response rating, Ragweed; for pest or weed control at 500 g/ha: 500 g ai/ha, preemergence; for pest or weed control at 125 g/ha: Preemergence, 125 g ai/ha
Procedure, shortened: (§1)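 Preemergence directed soil spray on seeded pots, or postemergence application to plants 2–10 cm, one- to two-leaf. Solvent mixture non-phytotoxic, with surfactant. Scored ~10 d later, visually, 0–100 vs untreated.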

[2] = system: pigweed (Amaranthus retroflexus); experiment: Test A preemergence; conditions: Amaranthus retroflexus, pre-emergence, 240 h, 0 to 100 scale (0 no effect, 100 complete control), read-out: Plant response rating, Pigweed; for pest or weed control at 500 g/ha: 500 g ai/ha, preemergence; for pest or weed control at 125 g/ha: Preemergence, 125 g ai/ha
[3] = system: giant foxtail (Setaria faberii); experiment: Test A preemergence; conditions: Setaria faberi, pre-emergence, 240 h, 0 to 100 scale (0 no effect, 100 complete control), read-out: Plant response rating, Foxtail, Giant; for pest or weed control at 500 g/ha: 500 g ai/ha, preemergence; for pest or weed control at 125 g/ha: Preemergence, 125 g ai/ha
Procedure, shortened: as §1

[4] = system: Kochia (Kochia scoparia); experiment: Test A preemergence; conditions: Bassia scoparia, pre-emergence, 240 h, 0 to 100 scale (0 no effect, 100 complete control), read-out: Plant response rating, Kochia; for pest or weed control at 500 g/ha: 500 g ai/ha, preemergence; for pest or weed control at 125 g/ha: Preemergence, 125 g ai/ha
Procedure, shortened: as §1

[5] = system: barnyardgrass (Echinochloa crus-galli); experiment: Test A preemergence; conditions: Echinochloa crus-galli, pre-emergence, 240 h, 0 to 100 scale (0 no effect, 100 complete control), read-out: Plant response rating, Barnyardgrass; for pest or weed control at 500 g/ha: 500 g ai/ha, preemergence; for pest or weed control at 125 g/ha: Preemergence, 125 g ai/ha
Procedure, shortened: as §1

[6] = system: ryegrass, Italian (Italian ryegrass, Lolium multiflorum); experiment: Test A preemergence; conditions: Lolium multiflorum, pre-emergence, 240 h, 0 to 100 scale (0 no effect, 100 complete control), read-out: Plant response rating, Ryegrass, Italian; for pest or weed control at 500 g/ha: 500 g ai/ha, preemergence; for pest or weed control at 125 g/ha: Preemergence, 125 g ai/ha
Procedure, shortened: as §1

[7] = system: ragweed (common ragweed, Ambrosia elatior); experiment: Test A postemergence; conditions: Ambrosia artemisiifolia, post-emergence, 240 h, Postemergence; for pest or weed control at 125 g/ha: 125 g ai/ha, visual rating about 10 d after treatment, read-out: Ragweed plant response rating (0 to 100 scale); for pest or weed control at 500 g/ha: 500 g ai/ha, visual injury, 0 to 100 scale (0 no effect, 100 complete control), approx. 10 d, read-out: Plant response rating, Ragweed
Procedure, shortened: as §1

[8] = system: pigweed (Amaranthus retroflexus); experiment: Test A postemergence; conditions: Amaranthus retroflexus, post-emergence, 240 h, Postemergence; for pest or weed control at 125 g/ha: 125 g ai/ha, visual rating about 10 d after treatment, read-out: Pigweed plant response rating (0 to 100 scale); for pest or weed control at 500 g/ha: 500 g ai/ha, visual injury, 0 to 100 scale (0 no effect, 100 complete control), approx. 10 d, read-out: Plant response rating, Pigweed
Procedure, shortened: as §1

[9] = system: giant foxtail (Setaria faberii); experiment: Test A postemergence; conditions: Setaria faberi, post-emergence, 240 h, Postemergence; for pest or weed control at 125 g/ha: 125 g ai/ha, visual rating about 10 d after treatment, read-out: Foxtail, Giant plant response rating (0 to 100 scale); for pest or weed control at 500 g/ha: 500 g ai/ha, visual injury, 0 to 100 scale (0 no effect, 100 complete control), approx. 10 d, read-out: Plant response rating, Foxtail, Giant
Procedure, shortened: as §1

[10] = system: Galium (catchweed bedstraw, Galium aparine); experiment: Test A postemergence; conditions: Galium, post-emergence, 240 h, Postemergence; for pest or weed control at 125 g/ha: 125 g ai/ha, visual rating about 10 d after treatment, read-out: Galium plant response rating (0 to 100 scale); for pest or weed control at 500 g/ha: 500 g ai/ha, visual injury, 0 to 100 scale (0 no effect, 100 complete control), approx. 10 d, read-out: Plant response rating, Galium
Procedure, shortened: as §1

[11] = system: Kochia (Kochia scoparia); experiment: Test A postemergence; conditions: Bassia scoparia, post-emergence, 240 h, Postemergence; for pest or weed control at 125 g/ha: 125 g ai/ha, visual rating about 10 d after treatment, read-out: Kochia plant response rating (0 to 100 scale); for pest or weed control at 500 g/ha: 500 g ai/ha, visual injury, 0 to 100 scale (0 no effect, 100 complete control), approx. 10 d, read-out: Plant response rating, Kochia
Procedure, shortened: as §1

[12] = system: barnyardgrass (Echinochloa crus-galli); experiment: Test A postemergence; conditions: Echinochloa crus-galli, post-emergence, 240 h, Postemergence; for pest or weed control at 125 g/ha: 125 g ai/ha, visual rating about 10 d after treatment, read-out: Barnyardgrass plant response rating (0 to 100 scale, 0 no effect, 100 complete control); for pest or weed control at 500 g/ha: 500 g ai/ha, visual injury, 0 to 100 scale (0 no effect, 100 complete control), approx. 10 d, read-out: Plant response rating, Barnyardgrass
Procedure, shortened: as §1

[13] = system: blackgrass (Alopecurus myosuroides); experiment: Test A postemergence; conditions: Alopecurus myosuroides, post-emergence, 240 h, Postemergence; for pest or weed control at 125 g/ha: 125 g ai/ha, visual rating about 10 d after treatment, read-out: Blackgrass plant response rating (0 to 100 scale); for pest or weed control at 500 g/ha: 500 g ai/ha, visual injury, 0 to 100 scale (0 no effect, 100 complete control), approx. 10 d, read-out: Plant response rating, Blackgrass
Procedure, shortened: as §1

[14] = system: ryegrass, Italian (Italian ryegrass, Lolium multiflorum); experiment: Test A postemergence; conditions: Lolium multiflorum, post-emergence, 240 h, Postemergence; for pest or weed control at 125 g/ha: 125 g ai/ha, visual rating about 10 d after treatment, read-out: Ryegrass, Italian plant response rating (0 to 100 scale); for pest or weed control at 500 g/ha: 500 g ai/ha, visual injury, 0 to 100 scale (0 no effect, 100 complete control), approx. 10 d, read-out: Plant response rating, Ryegrass, Italian
Procedure, shortened: as §1

[15] = system: corn (Zea mays); experiment: Test A postemergence; conditions: Zea mays, post-emergence, 240 h, Postemergence; for plant injury at 125 g/ha: 125 g ai/ha, visual rating about 10 d after treatment, read-out: Corn plant response rating (0 to 100 scale); for Corn plant response rating (crop injury, 0 = no effect, 100 = complete kill) at 500 g/ha: 500 g ai/ha, visual injury, 0 to 100 scale (0 no effect, 100 complete control), approx. 10 d
Procedure, shortened: as §1

Row | SMILES | pest or weed control at 500 g/ha [1] | pest or weed control at 125 g/ha [1] | pest or weed control at 500 g/ha [2] | pest or weed control at 125 g/ha [2] | pest or weed control at 500 g/ha [3] | pest or weed control at 125 g/ha [3] | pest or weed control at 500 g/ha [4] | pest or weed control at 125 g/ha [4] | pest or weed control at 500 g/ha [5] | pest or weed control at 125 g/ha [5] | pest or weed control at 500 g/ha [6] | pest or weed control at 125 g/ha [6] | pest or weed control at 125 g/ha [7] | pest or weed control at 500 g/ha [7] | pest or weed control at 125 g/ha [8] | pest or weed control at 500 g/ha [8] | pest or weed control at 125 g/ha [9] | pest or weed control at 500 g/ha [9] | pest or weed control at 125 g/ha [10] | pest or weed control at 500 g/ha [10] | also measured
1 | CO[C@]1(C(=O)Nc2cccc(F)c2F)C(=O)N(C)C[C@@H]1c1ccc(C(F)(F)F)cc1 (racemic) [Compound 1334] | 30% | 0% | 30% | 20% | 80% | 40% | 20% | 0% | 80% | 20% | 20% | 0% | 0% | 20% | 30% | 40% | 0% | 50% | 50% | 50% | pest or weed control at 125 g/ha [11]: 0%; pest or weed control at 500 g/ha [11]: 0%; pest or weed control at 125 g/ha [12]: 0%; pest or weed control at 500 g/ha [12]: 50%; pest or weed control at 125 g/ha [13]: 0%; pest or weed control at 500 g/ha [13]: 0%; pest or weed control at 125 g/ha [14]: 0%; pest or weed control at 500 g/ha [14]: 20%; plant injury at 125 g/ha [15]: 0%; Corn plant response rating (crop injury, 0 = no effect, 100 = complete kill) at 500 g/ha [15]: 30%
2 | O=C1NC[C@H](c2cc(C(F)(F)F)ccn2)[C@H]1C(=O)Nc1cccc(F)c1F (racemic) [Compound 1376] | 0% | 0% | 0% | 0% | 100% | 90% | 0% | 0% | 100% | 90% | 70% | 20% | 0% | 0% | 0% | 20% | 80% | 80% | 0% | 30% | pest or weed control at 125 g/ha [11]: 0%; pest or weed control at 500 g/ha [11]: 20%; pest or weed control at 125 g/ha [12]: 90%; pest or weed control at 500 g/ha [12]: 90%; pest or weed control at 125 g/ha [13]: 20%; pest or weed control at 500 g/ha [13]: 70%; pest or weed control at 125 g/ha [14]: 0%; pest or weed control at 500 g/ha [14]: 30%; plant injury at 125 g/ha [15]: 0%; Corn plant response rating (crop injury, 0 = no effect, 100 = complete kill) at 500 g/ha [15]: 30%
